Measured values reported in ChEMBL document CHEMBL5344421, “Chemical Analysis and Antidiabetic Potential of a Decoction from Stevia serrata Roots” (J Nat Prod, 2024).
Activity calls are given as the source filed them. The rule behind the calls is not given here.

How the values were obtained:
Mus musculus [1] = assay: Antihyperglycemic activity in normoglycemic mouse assessed as decrease in at 50 mg/kg, po measured upto 120 min after administration by oral glucose tolerance test; format: functional, organism-based
Sus scrofa = organism: Sus scrofa; assay: (§1) Inhibition of porcine pancreatic alpha-amylase measured after 40 mins by spectrophotocolorimetric enzymatic assay
Mus musculus [2] = assay: Hypoglycemic effect in normoglycemic mouse assessed as decrease in blood glucose level at 5 to 50 mg/kg, po measured upto 5 hrs after administration; format: functional, organism-based; settings: dose 5-50 mg/kg
Mus musculus [3] = assay: Antihyperglycemic activity in STZ-induced hyperglycemic CD1 mouse model assessed as reduction in blood glucose AUC at 50 mg/kg, ip measured upto 120 min intraperitoneal by insulin tolerance test; format: functional, organism-based
[4] = target: T1, Tyrosine-protein phosphatase non-receptor type 1 (Homo sapiens, UniProt P18031); assay: Inhibition of Protein tyrosine phosphatase 1B (unknown origin) activity by spectrophotocolorimetric analysis
T1 sequence (P18031 whole entry): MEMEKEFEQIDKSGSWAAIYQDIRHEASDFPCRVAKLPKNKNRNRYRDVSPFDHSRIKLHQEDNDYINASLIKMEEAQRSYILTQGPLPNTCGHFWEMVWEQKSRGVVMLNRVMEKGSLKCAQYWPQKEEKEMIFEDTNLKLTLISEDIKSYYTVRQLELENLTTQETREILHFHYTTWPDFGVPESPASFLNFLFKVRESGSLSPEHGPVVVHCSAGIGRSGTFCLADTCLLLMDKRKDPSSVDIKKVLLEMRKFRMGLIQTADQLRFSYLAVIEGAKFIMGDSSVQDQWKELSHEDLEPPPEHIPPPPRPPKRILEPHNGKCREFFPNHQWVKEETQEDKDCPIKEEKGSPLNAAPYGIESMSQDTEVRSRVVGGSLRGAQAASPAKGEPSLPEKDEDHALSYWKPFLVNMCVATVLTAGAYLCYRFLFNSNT

Mus musculus [5] = assay: Antihyperglycemic activity in STZ-hyperglycemic mouse assessed as decrease in blood glucose level at 150 mg/kg, po measured upto 5 hrs after administration; format: functional, organism-based
Mus musculus [6] = assay: Antihyperglycemic activity in STZ-hyperglycemic mouse assessed as decrease in at 50 mg/kg, po measured upto 120 min after administration by oral glucose tolerance test; format: functional, organism-based
[7] = target: T2, Pancreatic triacylglycerol lipase (Sus scrofa) (UniProt P00591); assay: Inhibition of porcine pancreatic lipase measured after 40 mins by spectrophotocolorimetric enzymatic assay
T2 sequence (whole entry): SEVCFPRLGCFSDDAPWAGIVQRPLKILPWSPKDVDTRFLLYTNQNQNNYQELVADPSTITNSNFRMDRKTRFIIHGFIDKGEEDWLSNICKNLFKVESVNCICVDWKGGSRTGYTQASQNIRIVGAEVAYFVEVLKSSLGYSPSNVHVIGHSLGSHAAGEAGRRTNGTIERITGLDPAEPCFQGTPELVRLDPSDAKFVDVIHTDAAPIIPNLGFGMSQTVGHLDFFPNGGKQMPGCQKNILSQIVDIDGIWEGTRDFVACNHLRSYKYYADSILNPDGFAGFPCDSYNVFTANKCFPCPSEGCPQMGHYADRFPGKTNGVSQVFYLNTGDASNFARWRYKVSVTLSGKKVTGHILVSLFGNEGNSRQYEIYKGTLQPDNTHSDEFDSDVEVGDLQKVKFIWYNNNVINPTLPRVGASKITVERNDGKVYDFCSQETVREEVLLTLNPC

[8] = as §1; design: species or system Sus scrofa

Compound | Activity (Mus musculus [1]) | inhibition (Sus scrofa) | Activity (Mus musculus [2]) | Activity (Mus musculus [3]) | IC50 [4] [µM] | Activity (Mus musculus [5]) | Activity (Mus musculus [6]) | inhibition [7] | IC50 [8] [µM]
C=C1C[C@@]23CC[C@H]4[C@@](C)(CCC[C@@]4(C)C(=O)O[C@@H]4O[C@H](CO)[C@@H](O[C@@H]5OC[C@H](O)[C@H](O)[C@H]5O)[C@H](OC(C)=O)[C@H]4OC(C)=O)[C@@H]2[C@@H](O)[C@@H]1C(=O)C3 | Active | inactive | Active | Active | 527 | Active | Active | inactive | –
C[C@H]1O[C@H](O[C@H]2[C@H](O)[C@@H](O)[C@@H](O[C@H]3[C@H](O)[C@@H](O)C(O)O[C@@H]3CO)O[C@@H]2CO)[C@H](O)[C@@H](O)[C@@H]1N[C@H]1C=C(CO)[C@@H](O)[C@H](O)[C@H]1O (stereo partly specified) [ACARBOSE] | – | – | – | – | – | – | – | – | 3.2
CC(=O)O[C@@H]1[C@@H](OC(C)=O)[C@H](OC(=O)[C@]2(C)CCC[C@@]3(C)[C@@H]4[C@@H](O)C[C@@H]5C[C@@]4(CC[C@@H]32)C[C@@]5(O)CO)O[C@H](CO)[C@H]1O[C@@H]1OC[C@H](O)[C@H](O)[C@H]1O | – | inactive | – | – | 31.8 | – | – | inactive | –
CC(=O)O[C@@H]1[C@@H](OC(C)=O)[C@H](OC(=O)[C@]2(C)CCC[C@@]3(C)[C@@H]4[C@@H](O)[C@@H]5C(=O)C[C@]4(C=C5C)CC[C@@H]32)O[C@H](CO)[C@H]1O[C@@H]1OC[C@H](O)[C@H](O)[C@H]1O | – | inactive | – | – | 532 | – | – | inactive | –
CC(=O)O[C@@H]1CC[C@]2(C)[C@H]3CCC4=C([C@@H](C)CCC=C(C)C)CC[C@@]4(C)[C@]3(C)CC[C@H]2C1(C)C | – | inactive | – | – | 1180 | – | – | inactive | –
C=C1[C@@H]2CC[C@H]3[C@]4(C)CCC[C@@](C)(C(=O)O[C@@H]5O[C@H](CO)[C@@H](O[C@@H]6OC[C@H](O)[C@H](O)[C@H]6O)[C@H](OC(C)=O)[C@H]5OC(C)=O)[C@H]4CC[C@]3(C2)[C@H]1O[C@@H]1O[C@H](CO)[C@@H](O)[C@H](O)[C@H]1O | – | inactive | – | – | 928 | – | – | inactive | –
